Structures can show the parent of a compound that is named as a salt.

As to `Cc1cc(N)nc(CCCCNC(=O)C2(C)CCc3c(C)c(O)c(C)c(C)c3O2)c1.O=C(O)/C=C/C(=O)O` (centres unmarked), the melting point (in general, the temperature, or range, at which the solid turns liquid) fell in the range of 131 to 136 °C. In turn, `Cc1c(C)c2c(c(C)c1O)CCC(C)(C(=O)N1CCN(CCC#Cc3ccc(N)nc3)CC1)O2.Cl` (centres unmarked) registered a melting point of 210 to 212 °C. `Cc1c(C)c2c(c(C)c1O)CCC(C)(C(=O)N1CCN(CCCCc3ccc(N)nc3)CC1)O2.Cl` (centres unmarked) showed a melting point of 221 to 223 °C.

For `COc1cc(C=CCNCCCCc2cc(C)cc(N)n2)ccc1O` (as salt: hydrochloride) [Example 26, 6-amino-N-[13-(4-hydroxy-3-metboxy-phenyl)-2-propenyl]4-methyl-2-pyridinebutanamine hydrochloride], the melting point was in the range of 60 to 62 °C. Molecule `Cc1cc(N)nc(CCCCNC(=O)c2ccc3c(c2)OCO3)c1.Cl` [Example 23, N-[(6-amino-4-methyl-2-pyridinyl)butyl]-1,3-benzodioxole-5-carboxamide hydrochloride] displayed a melting point of 176 to 178 °C. With `Cc1cc(N)nc(CCCCNCc2ccc3c(c2)OCO3)c1.O=C(O)/C=C/C(=O)O` [Example 29, N-[4-(6-amino-4-methyl-2-pyridinyl)butyl]-N-(1,3-benzodioxole-5-ylmethyl)amine fumarate], the melting point lay within 224 to 226 °C.

Molecule `Cc1cc(N)nc(CCCCNC/C=C/c2ccccc2)c1.O=C(O)/C=C/C(=O)O` [Example 30, N-[4-(6-amino-4-methyl-2-pyridinyl)butyl]-N-[(E)-3-phenyl-2-propenyl]amine fumarate] had a melting point of 163 to 165 °C. In the case of `Cc1cc(N)nc(CCCCNC(=O)/C=C/c2ccc3c(c2)OCO3)c1.O=C(O)/C=C/C(=O)O` [Example 31, (E)-N-[4-(6-amino-4-methyl-2-pyridinyl)butyl]-3-(1,3-benzodioxole-5-yl)-2-propenamide fumarate], the melting point lay in the range of 111 to 113 °C.

Values taken from patent US6762176B1, “2-aminopyridine derivatives, their use as medicines and pharmaceutical compositions containing them” (Societe de Consells de Recherches et D'Applications …, priority 1998, dated 2004).
